Measured values taken from ChEMBL document CHEMBL1687752, “Impact of antifungal prophylaxis on colonization and azole susceptibility of Candida species” (2009).
Converted amounts (≈) assume the structure as drawn.

Columns and labels:
Type in all cases: functional
[1] = test system: Candida albicans; experiment: Antifungal activity against Candida albicans isolated from HSCT recipients with acute or chronic GVHD receiving fluconazole by broth microdilution method
[2] = test system: Nakaseomyces glabratus; experiment: Antifungal activity against Candida glabrata isolated from neutropenic subject 1187 with AML or MDS stool after 22 days prophylaxis by broth microdilution method; conditions: 528 h
[3] = test system: Saccharomyces cerevisiae; experiment: Antifungal activity against Saccharomyces cerevisiae isolated from HSCT recipient 513 with acute or chronic GVHD mouth after 112 days prophylaxis by broth microdilution method
[4] = test system: Candida albicans; experiment: Antifungal activity against Candida albicans isolated from HSCT recipient 462 with acute or chronic GVHD mouth receiving antifungal drug after 112 days prophylaxis by broth microdilution method
[5] = test system: Nakaseomyces glabratus; experiment: Antifungal activity against 12 days cultured Candida glabrata isolated from HSCT recipient with acute or chronic GVHD mouth receiving antifungal therapy for 143 days after 116 days of prophylaxis by broth microdilution method
[6] = test system: Pichia kudriavzevii; experiment: Antifungal activity against Candida krusei isolated from HSCT recipients with acute or chronic GVHD prior to initiation of posaconazole therapy assessed as maximum MIC by broth microdilution method
[7] = test system: Candida albicans; experiment: Antifungal activity against Candida albicans isolated from neutropenic subjects with AML or MDS receiving posaconazole by broth microdilution method
[8] = test system: Nakaseomyces glabratus; experiment: Antifungal activity against Candida glabrata isolated from HSCT recipients with acute or chronic GVHD prior to initiation of fluconazole therapy assessed as maximum MIC by broth microdilution method
[9] = test system: Pichia kudriavzevii; experiment: Antifungal activity against Candida krusei isolated from HSCT recipients with acute or chronic GVHD receiving fluconazole by broth microdilution method
[10] = test system: Candida albicans; experiment: Antifungal activity against Candida albicans isolated from neutropenic subjects with AML or MDS receiving fluconazole by broth microdilution method
[11] = test system: Nakaseomyces glabratus; experiment: Antifungal activity against 176 days cultured Candida glabrata isolated from HSCT recipient with acute or chronic GVHD mouth receiving antifungal therapy for 172 days after 114 days of prophylaxis by broth microdilution method
[12] = test system: Pichia kudriavzevii; experiment: Antifungal activity against 13 days cultured Candida krusei isolated from invasive fungal infected subject blood after 12 days of prophylaxis by broth microdilution method
[13] = test system: Candida albicans; experiment: Antifungal activity against Candida albicans isolated from neutropenic subjects with AML or MDS prior to initiation of fluconazole therapy assessed as maximum MIC by broth microdilution method
[14] = test system: Nakaseomyces glabratus; experiment: Antifungal activity against Candida glabrata isolated from neutropenic subject 1102 with AML or MDS stool receiving antifungal drug after 26 days prophylaxis by broth microdilution method; conditions: 624 h
[15] = test system: Nakaseomyces glabratus; experiment: Antifungal activity against Candida glabrata isolated from HSCT recipient 270 with acute or chronic GVHD mouth receiving antifungal drug after 108 days prophylaxis by broth microdilution method
[16] = test system: Candida tropicalis; experiment: Antifungal activity against 2 days cultured Candida tropicalis isolated from neutropenic subject with AML or MDS stool receiving antifungal therapy for 45 days after 24 days of prophylaxis by broth microdilution method
[17] = test system: Nakaseomyces glabratus; experiment: Antifungal activity against Candida glabrata isolated from neutropenic subject 1491 with AML or MDS pharynx after 23 days prophylaxis by broth microdilution method; conditions: 552 h
[18] = test system: Nakaseomyces glabratus; experiment: Antifungal activity against 177 days cultured Candida glabrata isolated from HSCT recipient with acute or chronic GVHD mouth receiving antifungal therapy for 172 days after 114 days of prophylaxis by broth microdilution method
[19] = test system: Nakaseomyces glabratus; experiment: Antifungal activity against Candida glabrata isolated from neutropenic subject 1102 with AML or MDS stool after 26 days prophylaxis by broth microdilution method; conditions: 624 h
[20] = test system: Nakaseomyces glabratus; experiment: Antifungal activity against Candida glabrata isolated from neutropenic subject 1318 with AML or MDS stool after 36 days prophylaxis by broth microdilution method
[21] = test system: Nakaseomyces glabratus; experiment: Antifungal activity against Candida glabrata isolated from neutropenic subjects with AML or MDS receiving fluconazole assessed as maximum MIC by broth microdilution method
[22] = test system: Nakaseomyces glabratus; experiment: Antifungal activity against Candida glabrata isolated from HSCT recipient 186 with acute or chronic GVHD mouth after 112 days prophylaxis by broth microdilution method
[23] = test system: Candida albicans; experiment: Antifungal activity against Candida albicans isolated from neutropenic subjects with AML or MDS receiving posaconazole assessed as maximum MIC by broth microdilution method
[24] = test system: Pichia kudriavzevii; experiment: Antifungal activity against 16 days cultured Candida krusei isolated from neutropenic subject with AML or MDS pharynx receiving antifungal therapy for 19 days after 6 days of prophylaxis by broth microdilution method
[25] = test system: Pichia kudriavzevii; experiment: Antifungal activity against 8 days cultured Candida krusei isolated from neutropenic subject with AML or MDS pharynx after 12 days of prophylaxis by broth microdilution method
[26] = test system: Nakaseomyces glabratus; experiment: Antifungal activity against Candida glabrata isolated from HSCT recipient 186 with acute or chronic GVHD mouth receiving antifungal drug after 112 days prophylaxis by broth microdilution method
[27] = test system: Nakaseomyces glabratus; experiment: Antifungal activity against Candida glabrata isolated from HSCT recipient 002 with acute or chronic GVHD mouth receiving antifungal drug after 116 days prophylaxis by broth microdilution method
[28] = test system: Nakaseomyces glabratus; experiment: Antifungal activity against Candida glabrata isolated from HSCT recipient 491 with acute or chronic GVHD mouth receiving antifungal drug after 112 days prophylaxis by broth microdilution method
[29] = test system: Nakaseomyces glabratus; experiment: Antifungal activity against 29 days cultured Candida glabrata isolated from neutropenic subject with AML or MDS stool after 48 days of prophylaxis by broth microdilution method
[30] = test system: Nakaseomyces glabratus; experiment: Antifungal activity against 19 days cultured Candida glabrata isolated from HSCT recipient with acute or chronic GVHD mouth after 17 days of prophylaxis by broth microdilution method
[31] = test system: Nakaseomyces glabratus; experiment: Antifungal activity against 1 day cultured Candida glabrata isolated from HSCT recipient with acute or chronic GVHD mouth receiving antifungal therapy for 143 days after 116 days of prophylaxis by broth microdilution method
[32] = test system: Nakaseomyces glabratus; experiment: Antifungal activity against 16 days cultured Candida glabrata isolated from HSCT recipient with acute or chronic GVHD mouth receiving antifungal therapy for 31 days after 28 days of prophylaxis by broth microdilution method
[33] = test system: Nakaseomyces glabratus; experiment: Antifungal activity against Candida glabrata isolated from neutropenic subjects with AML or MDS prior to initiation of fluconazole therapy by broth microdilution method
[34] = test system: Nakaseomyces glabratus; experiment: Antifungal activity against 35 days cultured Candida glabrata isolated from HSCT recipient with acute or chronic GVHD mouth receiving antifungal therapy for 165 days after 138 days of prophylaxis by broth microdilution method
[35] = test system: Nakaseomyces glabratus; experiment: Antifungal activity against 3 days cultured Candida glabrata isolated from neutropenic subject with AML or MDS stool receiving antifungal therapy for 25 days after 3 days of prophylaxis by broth microdilution method
[36] = test system: Pichia kudriavzevii; experiment: Antifungal activity against 14 days cultured Candida krusei isolated from neutropenic subject with AML or MDS pharynx after 12 days of prophylaxis by broth microdilution method
[37] = test system: Pichia kudriavzevii; experiment: Antifungal activity against 6 days cultured Candida krusei isolated from neutropenic subject with AML or MDS pharynx receiving antifungal therapy for 19 days after 6 days of prophylaxis by broth microdilution method
[38] = test system: Nakaseomyces glabratus; experiment: Antifungal activity against Candida glabrata isolated from neutropenic subject 1331 with AML or MDS pharynx receiving antifungal drug after 21 days prophylaxis by broth microdilution method; conditions: 504 h
[39] = test system: Nakaseomyces glabratus; experiment: Antifungal activity against Candida glabrata isolated from HSCT recipients with acute or chronic GVHD prior to initiation of posaconazole therapy by broth microdilution method

CCC(C)n1ncn(-c2ccc(N3CCN(c4ccc(OCC5COC(Cn6cncn6)(c6ccc(Cl)cc6Cl)O5)cc4)CC3)cc2)c1=O (stereo not given) [ITRACONAZOLE]
MIC50 [1]: 0.03 µg/mL (≈ 0.0425 µM)
MIC90 [1]: 16 µg/mL (≈ 22.7 µM)
MIC [2]: 1 µg/mL (≈ 1.42 µM)
MIC [3]: 0.5 µg/mL (≈ 0.709 µM)
MIC [4]: 0.03 µg/mL (≈ 0.0425 µM)
MIC [5]: 4 µg/mL (≈ 5.67 µM)
MIC [6]: 16 µg/mL
MIC50 [7]: 0.015 µg/mL (≈ 0.0213 µM)
MIC90 [7]: 0.03 µg/mL (≈ 0.0425 µM)
MIC [8]: 32 µg/mL
MIC50 [9]: 0.5 µg/mL (≈ 0.709 µM)
MIC90 [9]: 16 µg/mL (≈ 22.7 µM)
MIC50 [10]: 0.015 µg/mL (≈ 0.0213 µM)
MIC90 [10]: 0.015 µg/mL (≈ 0.0213 µM)
MIC [11]: 8 µg/mL (≈ 11.3 µM)
MIC [12]: 0.25 µg/mL (≈ 0.354 µM)
MIC [13]: 0.125 µg/mL
MIC [14]: > 8 µg/mL
MIC [15]: 1 µg/mL (≈ 1.42 µM)
MIC [16]: < 0.015 µg/mL
MIC [17]: 1 µg/mL (≈ 1.42 µM)
MIC [18]: 1 µg/mL (≈ 1.42 µM)
MIC [19]: 1 µg/mL (≈ 1.42 µM)
MIC [20]: 0.25 µg/mL (≈ 0.354 µM)
MIC [21]: 8 µg/mL
MIC [22]: 0.5 µg/mL (≈ 0.709 µM)
MIC [23]: 0.03 µg/mL
MIC [24]: 0.5 µg/mL (≈ 0.709 µM)
MIC [25]: 0.25 µg/mL (≈ 0.354 µM)
MIC [26]: 2 µg/mL (≈ 2.83 µM)
MIC [27]: > 8 µg/mL
MIC [28]: 2 µg/mL (≈ 2.83 µM)
MIC [29]: 1 µg/mL (≈ 1.42 µM)
MIC [30]: > 8 µg/mL
MIC [31]: 1 µg/mL (≈ 1.42 µM)
MIC [32]: < 1 µg/mL
MIC50 [33]: 0.5 µg/mL (≈ 0.709 µM)
MIC90 [33]: 2 µg/mL (≈ 2.83 µM)
MIC [34]: 8 µg/mL (≈ 11.3 µM)
MIC [35]: 1 µg/mL (≈ 1.42 µM)
MIC [36]: 0.25 µg/mL (≈ 0.354 µM)
MIC [37]: 0.5 µg/mL (≈ 0.709 µM)
MIC [38]: 8 µg/mL (≈ 11.3 µM)
MIC50 [39]: 1 µg/mL (≈ 1.42 µM)
MIC90 [39]: 8 µg/mL (≈ 11.3 µM)

OC(Cn1cncn1)(Cn1cncn1)c1ccc(F)cc1F [FLUCONAZOLE]
MIC50 [1]: 1 µg/mL (≈ 3.27 µM)
MIC90 [1]: 64 µg/mL (≈ 209 µM)
MIC [2]: 16 µg/mL (≈ 52.2 µM)
MIC [3]: 8 µg/mL (≈ 26.1 µM)
MIC [4]: 8 µg/mL (≈ 26.1 µM)
MIC [5]: 64 µg/mL (≈ 209 µM)
MIC [6]: 64 µg/mL
MIC50 [7]: 0.25 µg/mL (≈ 0.816 µM)
MIC90 [7]: 0.25 µg/mL (≈ 0.816 µM)
MIC [8]: 64 µg/mL
MIC50 [9]: 64 µg/mL (≈ 209 µM)
MIC90 [9]: 64 µg/mL (≈ 209 µM)
MIC50 [10]: 0.25 µg/mL (≈ 0.816 µM)
MIC90 [10]: 0.5 µg/mL (≈ 1.63 µM)
MIC [11]: 32 µg/mL (≈ 104 µM)
MIC [12]: > 64 µg/mL
MIC [13]: 1 µg/mL
MIC [14]: > 64 µg/mL
MIC [15]: 8 µg/mL (≈ 26.1 µM)
MIC [16]: 0.25 µg/mL (≈ 0.816 µM)
MIC [17]: 4 µg/mL (≈ 13.1 µM)
MIC [18]: 32 µg/mL (≈ 104 µM)
MIC [19]: 4 µg/mL (≈ 13.1 µM)
MIC [20]: 4 µg/mL (≈ 13.1 µM)
MIC [21]: 16 µg/mL
MIC [22]: 8 µg/mL (≈ 26.1 µM)
MIC [23]: 0.25 µg/mL
MIC [24]: 64 µg/mL (≈ 209 µM)
MIC [25]: > 64 µg/mL
MIC [26]: 32 µg/mL (≈ 104 µM)
MIC [27]: 64 µg/mL (≈ 209 µM)
MIC [28]: 32 µg/mL (≈ 104 µM)
MIC [29]: 8 µg/mL (≈ 26.1 µM)
MIC [30]: > 64 µg/mL
MIC [31]: 16 µg/mL (≈ 52.2 µM)
MIC [32]: < 2 µg/mL
MIC50 [33]: 8 µg/mL (≈ 26.1 µM)
MIC90 [33]: 16 µg/mL (≈ 52.2 µM)
MIC [34]: 64 µg/mL (≈ 209 µM)
MIC [35]: 8 µg/mL (≈ 26.1 µM)
MIC [36]: 64 µg/mL (≈ 209 µM)
MIC [37]: 32 µg/mL (≈ 104 µM)
MIC [38]: > 64 µg/mL
MIC50 [39]: 16 µg/mL (≈ 52.2 µM)
MIC90 [39]: 64 µg/mL (≈ 209 µM)
